Experiments:
[1] = tested on: α1 adrenergic receptors (rat cerebral cortex); experiment: Radioligand binding assay, adrenergic α1 receptors; settings: test compound 1×10^−6 M
Method in brief: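 Values derive from radioligand displacement, with non-specific binding defined by excess cold ligand and detection by scintillation. Hill-fit IC50s were converted to Ki via Cheng-Prusoff using Scatchard-derived Kd; percent inhibition of control specific binding also reported.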

[2] = molecular target: T1, M3 muscarinic receptors (Homo sapiens, UniProt P20309); experiment: Radioligand binding assay, muscarinic M3 receptors; settings: test compound 1×10^−6 M
T1 construct: expressed in transfected cells; host or cells: CHO cells
T1 sequence (P20309 whole entry): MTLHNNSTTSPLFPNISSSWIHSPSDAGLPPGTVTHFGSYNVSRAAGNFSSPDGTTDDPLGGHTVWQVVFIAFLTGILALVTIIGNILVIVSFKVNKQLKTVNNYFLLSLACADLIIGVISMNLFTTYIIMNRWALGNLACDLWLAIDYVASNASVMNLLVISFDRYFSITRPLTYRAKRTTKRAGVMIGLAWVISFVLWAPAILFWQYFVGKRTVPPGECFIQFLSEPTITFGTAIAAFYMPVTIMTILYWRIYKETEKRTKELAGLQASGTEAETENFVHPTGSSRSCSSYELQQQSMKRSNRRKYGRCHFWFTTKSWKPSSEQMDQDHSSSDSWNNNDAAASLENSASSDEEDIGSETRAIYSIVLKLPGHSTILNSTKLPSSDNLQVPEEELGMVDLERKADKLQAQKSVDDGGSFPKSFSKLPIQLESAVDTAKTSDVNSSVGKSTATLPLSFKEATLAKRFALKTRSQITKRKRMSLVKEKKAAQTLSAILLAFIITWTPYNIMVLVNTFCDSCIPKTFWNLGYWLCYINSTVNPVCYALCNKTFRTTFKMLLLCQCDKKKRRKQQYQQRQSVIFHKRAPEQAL
Text: (§1) The specific ligand binding to the receptors is defined as the difference between the total binding and the non-specific binding determined in the presence of the excess of unlabelled ligand.
(§2) The results are expressed as a percent of control specific binding ((measured specific binding/control specific binding)×100) and as a percent inhibition of control specific binding (100−((measured specific binding/control specific binding)×100)) obtained in the presence of the test compounds. The specific ligand binding to the receptors is defined as the difference between the total binding and the nonspecific binding determined in the presence of an excess of unlabelled ligand. Scintillation counting was the method of detection of ligand binding. The IC50 values (concentration causing a half-maximal inhibition of control specific binding) were determined by non-linear regression analysis of the competition curves generated with mean replicate values using Hill equation curve fitting (Y=D+[(A−D)/(1+(C/C50)nH)], where Y=specific binding, D=minimum specific binding, A=maximum specific binding, C=compound concentration, C50=IC50, and nH=slope factor). This analysis was performed using a software developed at Cerep (Hill software) and validated by comparison with data generated by the commercial software SigmaPlot® 4.0 for Windows® (© 1997 by SPSS Inc.). The inhibition constants (Ki) were calculated using the Cheng Prusoff equation (Ki=IC50/(1+(L/KD)), where L=concentration of radioligand in the assay, and KD=affinity of the radioligand for the receptor). A scatchard plot was used to determine the Kd.
Experimental conditions for tests are given in Table 10, and results of tests for representative compounds are given in Table 11.

[3] = tested on: σ receptors; experiment: Radioligand binding assay, σ receptors; settings: rat cerebral cortex, [3H]DTG 8 nM
Text: as §1
as §2, with “This analysis was performed using a software developed at Cerep (Hill software) and validated by comparison with data generated by the commercial software SigmaPlot® 4.0 for Windows® (© 1997 by SPSS Inc.).” left out

[4] = molecular target: T2, serotonin transporter (SERT) (Homo sapiens, UniProt P31645); experiment: Radioligand binding assay, serotonin transporter (SERT)
T2 construct: expressed in transfected cells; host or cells: CHO cells
T2 sequence (P31645 whole entry): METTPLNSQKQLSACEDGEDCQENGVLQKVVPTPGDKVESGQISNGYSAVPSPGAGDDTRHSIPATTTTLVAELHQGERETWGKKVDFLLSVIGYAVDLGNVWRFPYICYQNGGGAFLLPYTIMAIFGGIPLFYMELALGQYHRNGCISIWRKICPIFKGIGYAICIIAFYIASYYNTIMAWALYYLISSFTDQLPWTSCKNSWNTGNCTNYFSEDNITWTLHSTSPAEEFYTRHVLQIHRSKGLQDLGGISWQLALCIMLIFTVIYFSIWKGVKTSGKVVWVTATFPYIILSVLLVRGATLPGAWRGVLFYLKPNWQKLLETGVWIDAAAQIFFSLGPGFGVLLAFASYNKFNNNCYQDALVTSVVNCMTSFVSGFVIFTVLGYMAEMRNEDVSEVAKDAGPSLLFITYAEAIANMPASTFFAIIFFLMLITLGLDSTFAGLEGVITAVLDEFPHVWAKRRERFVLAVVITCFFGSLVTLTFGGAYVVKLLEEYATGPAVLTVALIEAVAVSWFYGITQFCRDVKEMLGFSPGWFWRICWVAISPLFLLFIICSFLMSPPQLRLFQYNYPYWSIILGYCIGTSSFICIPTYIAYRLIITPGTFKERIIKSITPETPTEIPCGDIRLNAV
Method in brief: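 Values are derived from competition curves fitted by the Hill equation to give IC50, then converted to Ki by Cheng-Prusoff with radioligand Kd from Scatchard analysis. Specific binding equals total minus non-specific (excess cold ligand), counted by scintillation, and is also expressed as percent inhibition of control.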

[5] = molecular target: T3, 5-HT1A receptor (rat hippocampus) (Rattus norvegicus, UniProt P19327); experiment: Radioligand binding assay, serotoninergic 5-HT1A receptors; settings: binding assay result in %, Table 5a;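 further: test compound at 1 µM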
T3 construct: hippocampus; from tissue; host or cells: rat hippocampus
T3 sequence (P19327 1-422): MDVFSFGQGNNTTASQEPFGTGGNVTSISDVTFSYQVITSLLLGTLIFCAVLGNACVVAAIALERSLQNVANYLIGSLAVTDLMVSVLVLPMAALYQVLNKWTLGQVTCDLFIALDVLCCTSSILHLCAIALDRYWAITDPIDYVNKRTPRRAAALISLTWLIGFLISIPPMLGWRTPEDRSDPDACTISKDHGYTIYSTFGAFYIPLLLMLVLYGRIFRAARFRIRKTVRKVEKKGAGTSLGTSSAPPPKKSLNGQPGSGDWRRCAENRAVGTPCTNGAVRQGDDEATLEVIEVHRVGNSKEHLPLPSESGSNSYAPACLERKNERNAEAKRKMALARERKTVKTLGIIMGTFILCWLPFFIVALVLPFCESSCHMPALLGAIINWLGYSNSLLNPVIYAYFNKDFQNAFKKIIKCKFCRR

[6] = molecular target: T4, 5-HT7 receptor (Homo sapiens, UniProt P34969); experiment: Radioligand binding assay, serotoninergic 5-HT7 receptors; settings: binding assay result in %, Table 5a;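 further: test compound at 1 µM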
T4 construct: purchased PerkinElmer
T4 sequence (P34969 whole entry): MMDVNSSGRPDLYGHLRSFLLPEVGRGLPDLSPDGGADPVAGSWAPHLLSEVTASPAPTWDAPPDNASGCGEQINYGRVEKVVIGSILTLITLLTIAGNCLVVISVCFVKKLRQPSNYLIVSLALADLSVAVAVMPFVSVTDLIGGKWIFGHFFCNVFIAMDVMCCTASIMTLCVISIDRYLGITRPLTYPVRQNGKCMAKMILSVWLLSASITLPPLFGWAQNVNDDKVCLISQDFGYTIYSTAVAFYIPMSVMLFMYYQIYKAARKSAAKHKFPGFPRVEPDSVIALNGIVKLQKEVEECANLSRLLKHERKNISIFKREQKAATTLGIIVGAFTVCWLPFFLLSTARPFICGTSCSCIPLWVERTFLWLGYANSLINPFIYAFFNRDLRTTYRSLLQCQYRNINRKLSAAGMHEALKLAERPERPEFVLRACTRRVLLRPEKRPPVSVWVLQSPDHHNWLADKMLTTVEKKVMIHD
Method in brief: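 Ki values used the Cheng–Prusoff equation, with KD from Scatchard analysis, applied to IC50 from Hill fits of human 5-HT7 radioligand competition curves. Bound radioligand was counted by scintillation, and excess unlabelled ligand set the non-specific binding.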

[7] = binding assay, test compound 1×10^−6 M

SMILES: O=S(=O)(NCC1CCN(CCCc2noc3cc(F)ccc23)C1)c1ccc(-c2ccccc2)cc1 (centres unmarked) [Compound 241, N-[[1-[3-(6-Fluoro-1,2-benzoxazol-3-yl)propyl]pyrrolidin-3-yl]methyl]-4-phenyl-benzenesulphonamide]
- α1 [%] [1]: 62%
- inhibition at 1 µM [2]: 19%
- σ [%] [3]: 88%
- inhibition at 1 µM [4, 7]: 71%
- inhibition at 1 µM [5]: 39%
- inhibition at 1 µM [6]: 100%

SMILES: O=S(=O)(NC1CCN(CCCc2c[nH]c3ccc(F)cc23)C1)c1ccc(Cl)cc1 (centres unmarked) [Compound 77, 4-Chloro-N-[1-[3-(5-fluoro-1H-indol-3-yl)propyl]pyrrolidin-3-yl]-benzenesulphonamide]
- α1 [%] [1]: 29%
- inhibition at 1 µM [2]: 17%
- σ [%] [3]: 48%
- inhibition at 1 µM [4, 7]: 104%
- Ki ([4]; read-out: Inhibition constants Ki for SERT, SERT): 0.5 nM
- inhibition at 1 µM [5]: 99%
- inhibition at 1 µM [6]: 89%

SMILES: Cn1ccc2cc(S(=O)(=O)NCC3CCN(CCOc4cccc5c4OCCO5)C3)ccc21 (centres unmarked) [Compound 308, N-[[1-[2-(2,3-Dihydro-1,4-benzodioxin-5-yloxy)ethyl]pyrrolidin-3-yl]methyl]-1-methyl-indole-5-sulphonamide]
- α1 [%] [1]: 69%
- inhibition at 1 µM [2]: 13%
- σ [%] [3]: 91%
- inhibition at 1 µM [4, 7]: 95%
- inhibition at 1 µM [5]: 98%
- inhibition at 1 µM [6]: 83%

SMILES: O=S(=O)(NCC1CN(CCCc2noc3cc(F)ccc23)C1)c1cc2ccccc2s1 [Compound 127, N-[[1-[3-(6-Fluoro-1,2-benzoxazol-3-yl)propyl]azetidin-3-yl]methyl]benzo-thiophene-2-sulphonamide]
- α1 [%] [1]: 93%
- inhibition at 1 µM [2]: 1%
- SERT [%] [4, 7]: 49%
- 5-HT1A [%] [5]: 71%
- 5-HT7 [%] [6]: 96%

SMILES: O=S(=O)(NCC1CCN(CCOc2cccc3c2OCCO3)C1)c1ccc(Br)cc1 (centres unmarked) [Compound 305, 4-Bromo-N-[[1-[2-(2,3-dihydro-1,4-benzodioxin-5-yloxy)ethyl]pyrrolidin-3-yl]methyl]benzenesulphonamide]
- α1 [%] [1]: 84%
- inhibition at 1 µM [2]: 11%
- inhibition at 1 µM [4, 7]: 94%
- inhibition at 1 µM [5]: 101%
- inhibition at 1 µM [6]: 96%

SMILES: COc1cccc(S(=O)(=O)NCC2CN(CCCc3noc4cc(F)ccc34)C2)c1 [Compound 143, N-[[1-[3-(6-Fluoro-1,2-benzoxazol-3-yl)propyl]azetidin-3-yl]methyl]-3-methoxy-benzenesulphonamide]
- α1 [%] [1]: 97%
- inhibition at 1 µM [2]: -4%
- inhibition at 1 µM [4, 7]: 6%
- inhibition at 1 µM [5]: 44%
- inhibition at 1 µM [6]: 87%

SMILES: O=S(=O)(NCC1CCN(CCOc2cccc3c2OCCO3)C1)c1ccc(F)c(Cl)c1 (centres unmarked) [Compound 317, 3-Chloro-N-[[1-[2-(2,3-dihydro-1,4-benzodioxin-5-yloxy)ethyl]pyrrolidin-3-yl]methyl]-4-fluorobenzenesulphonamide]
- α1 [%] [1]: 84%
- inhibition at 1 µM [2]: 8%
- inhibition at 1 µM [4, 7]: 63%
- inhibition at 1 µM [5]: 100%
- inhibition at 1 µM [6]: 95%

SMILES: O=S(=O)(NCC1CCN(CCOc2cccc3c2OCCO3)C1)c1ccc(C(F)(F)F)cc1 (centres unmarked) [Compound 293, N-[[1-[2-(2,3-Dihydro-1,4-benzodioxin-5-yloxy)ethyl]pyrrolidin-3-yl]methyl]-4-(trifluoromethyl)benzenesulphonamide]
- α1 [%] [1]: 77%
- inhibition at 1 µM [2]: 10%
- inhibition at 1 µM [4, 7]: 82%
- inhibition at 1 µM [5]: 100%
- inhibition at 1 µM [6]: 90%

SMILES: O=S(=O)(NCC1CCN(CCOc2cccc3c2OCCO3)C1)c1cccc(F)c1 (centres unmarked) [Compound 298, N-[[1-[2-(2,3-Dihydro-1,4-benzodioxin-5-yloxy)ethyl]pyrrolidin-3-yl]-methyl]-3-fluoro-benzenesulphonamide]
- α1 [%] [1]: 77%
- inhibition at 1 µM [2]: 22%
- inhibition at 1 µM [4, 7]: 72%
- inhibition at 1 µM [5]: 97%
- inhibition at 1 µM [6]: 93%

SMILES: O=S(=O)(N[C@H]1CCN(CCCc2noc3cc(F)ccc23)C1)c1ccc2cc(Cl)ccc2c1 [Compound 201, 6-Chloro-N-[(3S)-1-[3-(6-fluoro-1,2-benzoxazol-3-yl)propyl]pyrrolidin-3-yl]naphthalene-2-sulphonamide]
- α1 [%] [1]: 82%
- inhibition at 1 µM [2]: 9%
- inhibition at 1 µM [4, 7]: 59%
- inhibition at 1 µM [5]: 32%
- inhibition at 1 µM [6]: 95%

SMILES: O=S(=O)(NCC1CCN(CCOc2cccc3c2OCCO3)C1)c1ccc(F)cc1 (centres unmarked) [Compound 300, N-[[1-[2-(2,3-Dihydro-1,4-benzodioxin-5-yloxy)ethyl]pyrrolidin-3-yl]-methyl]-4-fluoro-benzenesulphonamide]
- α1 [%] [1]: 83%
- inhibition at 1 µM [2]: -2%
- inhibition at 1 µM [4, 7]: 64%
- inhibition at 1 µM [5]: 99%
- inhibition at 1 µM [6]: 90%

SMILES: O=S(=O)(NCC1CCN(CCOc2cccc3c2OCCO3)C1)c1cccc(O)c1 (centres unmarked) [Compound 303, N-[[1-[2-(2,3-Dihydro-1,4-benzodioxin-5-yloxy)ethyl]pyrrolidin-3-yl]-methyl]-3-hydroxy-benzenesulphonamide]
- α1 [%] [1]: 89%
- inhibition at 1 µM [2]: 9%
- inhibition at 1 µM [4, 7]: 73%
- inhibition at 1 µM [5]: 96%
- inhibition at 1 µM [6]: 98%

SMILES: O=S(=O)(N[C@H]1CCN(CCCc2noc3cc(F)ccc23)C1)c1ccc2ccccc2c1 [Compound 207, N-[(3S)-1-[3-(6-Fluoro-1,2-benzoxazol-3-yl)propyl]pyrrolidin-3-yl]-naphthalene-2-sulphonamide]
- α1 [%] [1]: 95%
- inhibition at 1 µM [2]: 12%
- inhibition at 1 µM [4, 7]: 58%
- inhibition at 1 µM [5]: 58%
- inhibition at 1 µM [6]: 99%

SMILES: Cn1ccc2cc(S(=O)(=O)NC3CCN(CCCc4noc5cc(F)ccc45)C3)ccc21 (centres unmarked) [Compound 218, N-[1-[3-(6-Fluoro-1,2-benzoxazol-3-yl)propyl]pyrrolidin-3-yl]-1-methyl-indole-5-sulphonamide]
- inhibition at 1 µM [2]: 0%
- inhibition at 1 µM [4, 7]: 95%
- inhibition at 1 µM [5]: 91%
- inhibition at 1 µM [6]: 98%

SMILES: Cc1ccc2sc(S(=O)(=O)N[C@H]3CCN(CCCc4noc5cc(F)ccc45)C3)cc2c1 [Compound 229, N-[(3S)-1-[3-(6-Fluoro-1,2-benzoxazol-3-yl)propyl]pyrrolidin-3-yl]-5-methylbenzothiophene-2-sulphonamide]
- α1 [%] [1]: 89%
- inhibition at 1 µM [2]: 15%
- inhibition at 1 µM [4, 7]: 50%
- inhibition at 1 µM [5]: 46%
- inhibition at 1 µM [6]: 99%

SMILES: O=S(=O)(NCC1CCN(CCOc2cccc3c2OCCO3)C1)c1ccc2c(c1)CCO2 (centres unmarked) [Compound 306, N-[[1-[2-(2,3-Dihydro-1,4-benzodioxin-5-yloxy)ethyl]pyrrolidin-3-yl]-methyl]-2,3-dihydrobenzofuran-5-sulphonamide]
- α1 [%] [1]: 90%
- inhibition at 1 µM [2]: 12%
- inhibition at 1 µM [4, 7]: 90%
- inhibition at 1 µM [5]: 99%
- inhibition at 1 µM [6]: 94%
